Values of other authors as cited in patent US4663309A, “Novel peptide hormones with calcitonin-like activity” (University Patents, Inc., priority 1985, dated 1987).

Legend:
[1] = literature value; cited from earlier work
[2] = molecular target: T1, calcitonin receptors (brain particulate fraction) (Rattus norvegicus, UniProt P32214); design: from tissue; settings: rat brain homogenates; literature value; read-out: IC50, [125I]-SCT-I binding to rat brain, value found by Nakamuta et al.; cited from earlier work
T1 sequence (P32214 25-516): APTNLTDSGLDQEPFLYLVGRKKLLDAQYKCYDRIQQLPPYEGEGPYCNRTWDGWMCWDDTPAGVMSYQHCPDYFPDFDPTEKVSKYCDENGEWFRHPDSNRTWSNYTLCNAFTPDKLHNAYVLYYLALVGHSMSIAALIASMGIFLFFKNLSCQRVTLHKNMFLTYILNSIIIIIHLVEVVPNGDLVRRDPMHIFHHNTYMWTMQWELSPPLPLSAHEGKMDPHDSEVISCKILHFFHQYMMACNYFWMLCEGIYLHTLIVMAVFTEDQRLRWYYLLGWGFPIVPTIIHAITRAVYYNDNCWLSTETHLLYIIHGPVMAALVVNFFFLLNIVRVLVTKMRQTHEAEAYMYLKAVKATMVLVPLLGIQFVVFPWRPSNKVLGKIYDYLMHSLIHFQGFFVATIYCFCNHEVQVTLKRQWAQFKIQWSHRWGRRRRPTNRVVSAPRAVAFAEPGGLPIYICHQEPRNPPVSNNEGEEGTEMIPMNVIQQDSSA

porcine calcitonin [PCT]
α-helicity in 50% 2-chloroethanol (Brewer and Edelhoch) [1]: 50%
IC50 [2]: 17 nM
